Bounds are passed on as bounds.

One experiment relates to IL-1β release in U937 cells after NLRP3 activation. The experiment is described as follows: IL-1β release inhibition in U937 cells (MSD V-Plex). To be noted: Homo sapiens, U-937, read-out: IL-1β IC50, Table 3; PMA-differentiated U937 cells, 1 μg/mL LPS 3 h, compound 30 min, 10 mM nigericin 1 h.
For the compound `Cc1c(N[C@@H]2CCCN(C(=O)C34CC(O)(C3)C4)C2)nnc(-c2ccc(C(F)(F)F)cc2O)c1C` [Example 67, (R)-(3-((6-(2-hydroxy-4-(trifluoromethyl)phenyl)-4,5-dimethylpyridazin-3-yl)amino)piperidin-1-yl) (3-hydroxybicyclo[1.1.1]pentan-1-yl)methanone], the IC50 (in general, the concentration that gives 50% inhibition) lay within 5 to 50 nM.
The same measure, in the same setting: for `Cc1c(N[C@@H]2CCCN(CC(=O)N3CCC(O)CC3)C2)nnc(-c2ccc(C(F)(F)F)cc2O)c1C` [Example 30, (R)-2-(3-((6-(2-Hydroxy-4-(trifluoromethyl)phenyl)-4,5-dimethylpyridazin-3-yl)amino)piperidin-1-yl)-1-(4-hydroxypiperidin-1-yl)ethan-1-one] the value was 5 to 50 nM; for `Cc1cc(-c2ccc(C(F)(F)F)cc2O)nnc1N[C@@H]1CCCN(CC(=O)N2CC[C@H](O)C2)C1` [Example 31, 2-((R)-3-((6-(2-Hydroxy-4-(trifluoromethyl)phenyl)-4-methylpyridazin-3-yl)amino)piperidin-1-yl)-1-((S)-3-hydroxypyrrolidin-1-yl)ethan-1-one], 50 to 500 nM.
For `Cc1cc(N[C@@H]2CCCN(CCN3CCC(O)CC3)C2)nnc1-c1ccc(C(F)(F)F)cc1O` [Compound 7, (R)-1-(2-(3-((6-(2-Hydroxy-4-(trifluoromethyl)phenyl)-5-methylpyridazin-3-yl)amino)piperidin-1-yl)ethyl)piperidin-4-ol], the IC50 is 5 to 50 nM.
Still for that read-out and setting: the value for `Cc1cc(N[C@@H]2CCCN(C3CCN(C4CCC(O)CC4)CC3)C2)nnc1-c1ccc(C(F)(F)F)cc1O` (single isomer, unassigned) [Example 39A] was 5 to 50 nM.
Consider `Oc1cc(C(F)(F)F)ccc1-c1nnc(N[C@@H]2CCCN(CCN3CC[C@@H](O)C3)C2)c2c1COC2` [Example 36, (R)-1-(2-((R)-3-((4-(2-Hydroxy-4-(trifluoromethyl)phenyl)-5,7-dihydrofuro[3,4-d]pyridazin-1-yl)amino)piperidin-1-yl)ethyl)pyrrolidin-3-ol], for which the IC50 fell in the range of 5 to 50 nM.
`Cc1cc(N[C@@H]2CCCN(CC(=O)N3CC(C)(CO)C3)C2)nnc1-c1ccc(C(F)(F)F)cc1O` [Example 48, (R)-2-(3-((6-(2-Hydroxy-4-(trifluoromethyl)phenyl)-5-methylpyridazin-3-yl)amino)piperidin-1-yl)-1-(3-(hydroxymethyl)-3-methylazetidin-1-yl)ethan-1-one]: the IC50 fell in the range of 5 to 50 nM.
For the compound `Cc1c(N[C@@H]2CCCN(CC34CC(O)(C3)C4)C2)nnc(-c2ccc(C(F)(F)F)cc2O)c1C` [Example 68, (R)-3-((3-((6-(2-Hydroxy-4-(trifluoromethyl)phenyl)-4,5-dimethylpyridazin-3-yl)amino)piperidin-1-yl)methyl) bicyclo[1.1.1]pentan-1-ol], the IC50 lay in the range of 5 to 50 nM.
`Cc1cc(N[C@@H]2CCCN(CC(=O)N3CCC(O)CC3)C2)nnc1-c1ccc2sccc2c1O` [Example 49, 2-[(3R)-3-{[6-(4-hydroxy-1-benzothiophen-5-yl)-5-methylpyridazin-3-yl]amino}piperidin-1-yl]-1-(4-hydroxypiperidin-1-yl)ethanone]: the IC50 was less than 5 nM.
`Cc1cc(N[C@@H]2CCCN(CC(=O)NC34CC(O)(C3)C4)C2)nnc1-c1ccc(C(F)(F)F)cc1O` [Compound 13, (R)-2-(3-((6-(2-Hydroxy-4-(trifluoromethyl)phenyl)-5-methylpyridazin-3-yl)amino)piperidin-1-yl)-N-(3-hydroxybicyclo[1.1.1]pentan-1-yl)acetamide]: the IC50 fell in the range of 5 to 50 nM.
Regarding `Cc1cc(N[C@@H]2CCCN(CC3CC(O)C3)C2)nnc1-c1ccc2sccc2c1O` (stereo partly drawn) [Example 52, 5-(6-(((R)-1-(((1r,3R)-3-Hydroxycyclobutyl)methyl)piperidin-3-yl)amino)-4-methylpyridazin-3-yl)benzo[b]thiophen-4-ol], the IC50 was less than 5 nM.
Turning to `Cc1cc(N[C@@H]2CCCN(C3CCN(C4CC(O)C4)CC3)C2)nnc1-c1ccc(C(F)(F)F)cc1O` (single isomer, unassigned) [Example 38A], the IC50 was 5 to 50 nM.
Still for that read-out and setting: for `Cc1cc(N[C@@H]2CCCN(CCN3CCC(O)C3)C2)nnc1-c1ccc(C(F)(F)F)cc1O` (stereo partly drawn) [Compound 2, 1-(2-((R)-3-((6-(2-Hydroxy-4-(trifluoromethyl)phenyl)-5-methylpyridazin-3-yl)amino)piperidin-1-yl)ethyl)pyrrolidin-3-ol] the value was greater than 500 nM; for `Cc1c(-c2ccc(C(F)(F)F)cc2O)nnc2c1CCCN2[C@@H]1CCCN(CC(=O)N2CCC3(CC2)CC(O)C3)C1` [Example 43, 2-[(3R)-3-{3-[2-Hydroxy-4-(trifluoromethyl)phenyl]-4-methyl-5H,6H,7H-pyrido[2,3-c]pyridazin-8-yl}piperidin-1-yl]-1-{2-hydroxy-7-azaspiro[3.5]nonan-7-yl}ethanone], 50 to 500 nM.
Regarding `O=C(CN1CCC[C@@H](Nc2nnc(-c3ccc(C(F)(F)F)cc3O)c3c2COC3)C1)N1CC2(CCC(O)CC2)C1` [Compound 25, (R)-2-(3-((4-(2-Hydroxy-4-(trifluoromethyl)phenyl)-5,7-dihydrofuro[3,4-d]pyridazin-1-yl)amino)piperidin-1-yl)-1-(7-hydroxy-2-azaspiro[3.5]nonan-2-yl)ethan-1-one], the IC50 fell in the range of 5 to 50 nM.
Regarding `Cc1cc(N[C@@H]2CCCN(CC(=O)N3CCC(O)CC3)C2)nnc1-c1ccc(C(F)(F)F)cc1O` [Compound 9, 2-[(3R)-3-({6-[2-Hydroxy-4-(trifluoromethyl)phenyl]-5-methylpyridazin-3-yl}amino)piperidin-1-yl]-1-(4-hydroxypiperidin-1-yl)ethanone], the IC50 lay in the range of 5 to 50 nM.
Turning to `O=C(CN1CCC[C@@H](Nc2nnc(-c3ccc(C(F)(F)F)cc3O)c3c2COC3)C1)N1CCC(O)CC1` [Compound 23, (R)-2-(3-((4-(2-Hydroxy-4-(trifluoromethyl)phenyl)-5,7-dihydrofuro[3,4-d]pyridazin-1-yl)amino)piperidin-1-yl)-1-(4-hydroxypiperidin-1-yl)ethan-1-one], the IC50 is less than 5 nM.
With `O=C(CN1CCC[C@@H](Nc2nnc(-c3ccc(F)cc3O)c3c2CCC3)C1)N1CCC(O)CC1` [Compound 20, 2-[(3R)-3-{[4-(4-Fluoro-2-hydroxyphenyl)-5H,6H,7H-cyclopenta[d]pyridazin-1-yl]amino}piperidin-1-yl]-1-(4-hydroxypiperidin-1-yl) ethenone], the IC50 fell in the range of 50 to 500 nM.

Still in this experiment, the particulars now being: Homo sapiens, U-937, read-out: IL-1β IC50, Table 4; PMA-differentiated U937 cells, 1 μg/mL LPS 3 h, compound 30 min, 10 mM nigericin 1 h.
As for `Cc1cc(N[C@@H]2CCCN(CCNCC3CCS(=O)(=O)CC3)C2)nnc1-c1ccc(C(F)(F)F)cc1O` [Example 109, (R)-4-(((2-(3-((6-(2-Hydroxy-4-(trifluoromethyl)phenyl)-5-methylpyridazin-3-yl)amino)piperidin-1-yl)ethyl)amino)methyl)tetrahydro-2H-thiopyran 1,1-dioxide], the IC50 was 5 to 50 nM.
As to `Cc1cc(N[C@@H]2CCCN(CC(=O)N3CCC4(CC3)CNC4)C2)nnc1-c1ccc(C(F)(F)F)cc1O` [Example 102, (R)-2-(3-((6-(2-Hydroxy-4-(trifluoromethyl)phenyl)-5-methylpyridazin-3-yl)amino)piperidin-1-yl)-1-(2,7-diazaspiro[3.5]nonan-7-yl)ethan-1-one], the IC50 fell in the range of 50 to 500 nM.
For the compound `Oc1cc(F)ccc1-c1nnc(N[C@@H]2CCCN(C3CNC3)C2)c2c1CCC2` [Example 81, (R)-2-(4-((1-(Azetidin-3-yl)piperidin-3-yl)amino)-6,7-dihydro-5H-cyclopenta[d]pyridazin-1-yl)-5-fluorophenol], the IC50 was 50 to 500 nM.
For `Cc1cc(N[C@@H]2CCCN(CC(=O)NC3CNC3)C2)nnc1-c1ccc(C(F)(F)F)cc1O` [Example 94, (R)—N-(Azetidin-3-yl)-2-(3-((6-(2-hydroxy-4-(trifluoromethyl)phenyl)-5-methylpyridazin-3-yl)amino)piperidin-1-yl)acetamide], the IC50 was greater than 500 nM.
As to `Cc1cc(N[C@@H]2CCCN(CC(=O)N3CCN[C@H](C)C3)C2)nnc1-c1ccc(C(F)(F)F)cc1O` [Example 110, 2-((R)-3-((6-(2-Hydroxy-4-(trifluoromethyl)phenyl)-5-methylpyridazin-3-yl)amino)piperidin-1-yl)-1-((R)-3-methylpiperazin-1-yl)ethan-1-one], the IC50 lay in the range of 5 to 50 nM.
For the compound `Cc1cc(N[C@@H]2CCCN(C[C@@H]3CCCN3)C2)nnc1-c1ccc(C(F)(F)F)cc1O` [Example 106, 2-(4-Methyl-6-(((R)-1-(((S)-pyrrolidin-2-yl)methyl)piperidin-3-yl)amino)pyridazin-3-yl)-5-(trifluoromethyl)phenol], the IC50 was in the range of 5 to 50 nM.
Regarding `Cc1cc(N[C@@H]2CCCN(CC(=O)N3CCNCC3)C2)nnc1-c1ccc2sccc2c1O` [Example 113, (R)-2-(3-((6-(4-hydroxybenzo[b]thiophen-5-yl)-5-methylpyridazin-3-yl)amino)piperidin-1-yl)-1-(piperazin-1-yl)ethan-1-one], the IC50 was less than 5 nM.
Regarding `Cc1cc(N[C@@H]2CCCN(C3CC(N)C3)C2)nnc1-c1ccc(C(F)(F)F)cc1O` (stereo partly drawn) [Example 89, (R)-2-(6-((1-(3-Aminocyclobutyl)piperidin-3-yl)amino)-4-methylpyridazin-3-yl)-5-(trifluoromethyl)phenol], the IC50 is 5 to 50 nM.
For the compound `Cc1cc(N[C@@H]2CCCN(C3CCN(C(=O)N4CCC(N)CC4)CC3)C2)nnc1-c1ccc(C(F)(F)F)cc1O` [Example 87, (R)-(4-Aminopiperidin-1-yl) (3-((6-(2-hydroxy-4-(trifluoromethyl)phenyl)-5-methylpyridazin-3-yl)amino)-[1,4′-bipiperidin]-1′-yl)methanone], the 50% inhibitory concentration (IC50) was in the range of 50 to 500 nM.
For the compound `Cc1cc(N[C@@H]2CCCN(C(=O)CN)C2)nnc1-c1ccc(C(F)(F)F)cc1O` [Example 92, (R)-2-Amino-1-(3-((6-(2-hydroxy-4-(trifluoromethyl)phenyl)-5-methylpyridazin-3-yl)amino)piperidin-1-yl)ethan-1-one], the IC50 fell in the range of 5 to 50 nM.
Regarding `Cc1cc(C(F)(F)F)cc(O)c1-c1ccc(N[C@@H]2CCCN(C3CNC3)C2)nn1` [Example 88, (R)-2-(6-((1-(Azetidin-3-yl)piperidin-3-yl)amino)pyridazin-3-yl)-3-methyl-5-(trifluoromethyl)phenol], the IC50 lay in the range of 5 to 50 nM.

The record behind these values is US20260217677A1, “ORGANIC COMPOUNDS AS NLRP3 INHIBITORS” (KODIAK SCIENCES, INC., priority 2023, published 2026).
